The results in this text go back to US20050197356A1, “Non-immunosuppressive immunophilin ligands as neuroprotective and/or neuroregenerative agents” (Wyeth, priority 2004, published 2005).

What all share (type): cell-based, rat
For test [1], the system named is cultured dopaminergic neurons. Kind of test: High-affinity 3H-dopamine uptake after MPP+ induced toxicity in mesencephalic dopaminergic neuron cultures. On the procedure: Mesencephalic dopaminergic neuron cultures were prepared as previously described in Pong et al., J Neurochem. 69: 986-994 (1997). Embryonic day 15 (E15) rat fetuses were collected and dissected in ice-cold phosphate-buffered saline (PBS). The ventral piece of tissue compromising the mesencephalic dopaminergic region was dissected out. Dissected pieces of tissue were pooled together and transferred to an enzymatic dissociation medium containing 20 IU/ml papain in Earle's balanced salt solution (Worthington Biochemical, Freehold, N.J., U.S.A.) and incubated for 60 minutes at 37° C. After enzymatic dissociation, the papain solution was aspirated and the tissue mechanically triturated with a fire-polished glass Pasteur pipette in complete medium [equal volumes of minimum essential medium (MEM) and F-12 nutrient mixture (Gibco BRL) supplemented with 0.1 mg/ml apotransferrin and 2.5 μg/ml insulin] containing 2,000 IU/ml DNase and 10 mg/ml ovomucoid protease inhibitor.
For dopamine uptake experiments, single-cell suspensions in complete media were seeded on poly-L-ornithine and laminin coated 24-well plates. The cultures were maintained for seven days prior to experimentation. Cultures were pretreated with various concentrations of the compound of formula (I) (washed with PBS and diluted with media to concentrations of 1 nM to 1000 nM) for 24 hours, then exposed to 10 μM the neurotoxin 1-methyl-4-phenylpyridinium (MPP^+) for 1 hour to assess the neuroprotective effect of the compound of formula (I) in cell culture. Following the 1 hour incubation, media was exchanged three times and fresh compound was added for an additional 48 hours.
More particularly, after 48 hours growth of mesencephalic dopaminergic neuron cultures following MPP^+ exposure, high-affinity ^3H-dopamine uptake was performed using a modified method described by Prochiantz et al., Nature 293: 570-572 (1981). Cultures were washed with pre-warmed phosphate-buffered saline (PBS) containing 5.6 mM glucose and 1 mM ascorbic acid. Cultures were then incubated for 15 minutes at 37° C. with 50 nM ^3H-dopamine (31 Ci/mmol, Du Pont-NEN, Wilmington, Del., U.S.A.). The cultures were washed twice with buffer and lysed with 0.5 N NaOH. The lysate was transferred to a scintillation vial containing Ultima Gold scintillation cocktail and radioactivity was determined with a liquid scintillation counter. Alternatively, culture lysates can be washed twice with buffer, incubated for 2 hours at room temperature with Optiphase Supermix scintillation cocktail (Wallac Scintillation Products, Gaithersburg, Md., USA), and radioactivity measured with a liquid scintillation counter.
MPP^+-induced neurotoxicity in a ^3H-dopamine uptake cell assay was measured. Neuroprotective effects in cell culture were measured by addition of the compound (1 nM to 1000 nM) to the culture in the presence of MPP.

In test [2] the test system is cultured cortical neurons. Kind of test: Neurofilament content in cultured cortical neurons (neurofilament antibody, colorimetric). The settings on record: 72 hours. On the procedure: (§1) Dissociated cortical neuron cultures were prepared as previously described [Pong et al., Exp Neurol. 2001 September; 171(1):84-97 (2001)]. Briefly, embryonic day 15 rat fetuses were collected and dissected in ice-cold PBS. Dissected cortices were pooled together and transferred to an enzymatic dissociation medium containing papain. After 30 min, the tissue was mechanically triturated with a fire-polished glass Pasteur pipette. Single-cell suspensions in complete media were seeded on poly-L-ornithine and laminin coated 96-well plates. 24 hours later, cultures were treated with various concentrations of compound of formula (I) for 72 hours. The cultures were then fixed and stained with a neurofilament primary antibody and a peroxidase-tagged secondary antibody. A peroxidase substrate (K-Blue Max) was added and the colorimetric change was measure on a colorimetric plate reader.
as §1, with “(Pong” for “[Pong”, “2001).” for “Exp Neurol. 2001 September; 171(1):84-97 (2001)].”, “ploy-L-ornithine” for “poly-L-ornithine”, “compound” for “compound of formula (I)”, “calorimetric” for “colorimetric”

For test [3], the system named is cultured dorsal root ganglia. Kind of test: Neurite outgrowth (ENO algorithm, Cellomics ArrayScan) in cultured dorsal root ganglia. The settings on record: 72 hours. On the procedure: Dissociated dorsal root ganglia cultures were prepared as previously described [A. Wood et al., “Stimulation of neurite outgrowth by immunophilin ligands: quantitative analysis by Cellomics Array scan” Society for Neuroscience (2004), abstract 104.3] Briefly, postnatal day 3-5 rat pups were euthanized. The spinal columns were removed and individual dorsal root ganglia (DRG) were dissected out. Dissected DRG were pooled together and transferred to an enzymatic dissociation medium containing papain. After 60 minutes, the tissue was mechanically triturated with a fire-polished glass Pasteur pipette. Single-cell suspensions in complete media were seeded on poly-L-ornithine and laminin coated 96-well plates. After 24 hours, cultures were treated with various concentrations of the compound of formula I for 72 hours. The cultures were then fixed and stained with an anti-tubulin primary antibody (TUJ-1) and a fluorescent-tagged secondary antibody. Neurite outgrowth was determined by using the Enhanced Neurite Outgrowth (ENO) algorithm with the Cellomics ArrayScan and expressed as total neurite length per cell.

Test [4] relates to cultured cortical neurons. Put plainly: Neurite outgrowth (ENO algorithm, Cellomics ArrayScan) in cultured cortical neurons. The settings on record: 72 hours. On the procedure: Dissociated cortical neuron cultures were prepared as previously described (Pong et al., cited above, 2001). Briefly, embryonic day 15 rat fetuses were collected and dissected in ice-cold PBS. Dissected cortices were pooled together and transferred to an enzymatic dissociation medium containing papain. After 30 minutes, the tissue was mechanically triturated with a fire-polished glass Pasteur pipette. Single-cell suspensions in complete media were seeded on poly-L-ornithine and laminin coated 96-well plates. After 24 hours, cultures were treated with various concentrations of the compound of formula I for 72 hours. The cultures were then fixed and stained with an anti-tubulin primary antibody (TUJ-1) and a fluorescent-tagged secondary antibody. Neurite outgrowth was determined by using the Enhanced Neurite Outgrowth (ENO) algorithm with the Cellomics ArrayScan and expressed as total neurite length per cell.

As for `C[n+]1ccc(-c2ccccc2)cc1` [MPP^+, 1-methyl-4-phenylpyridinium, reference compound], the “3H-DOPAMINE UPTAKE (% UNTREATED CONTROL)” value in test [1] (10 uM MPP+ alone, 1 hour exposure, uptake 48 hours later) amounted to 40%.
A word on the EC50: it is the concentration needed to bring the measured effect to its halfway point. In the case of `CC/C1=C\CC(/C(C)=C/C(C)C(C)O)OC(=O)C2CCCCN2C(=O)C(=O)C2(O)OC(CCC2C)CC(O)C(C)C(O)CC(O)CC(O)/C(C)=C/C(C)CC(C)C1O` (centres unmarked) [meridamycin], the “3H-DOPAMINE UPTAKE (% UNTREATED CONTROL)” value in test [1] (1 nM meridamycin, 24 h pretreatment, 10 uM MPP+ 1 h, compound further 48 h) worked out at 47%; in test [1] (10 nM meridamycin, 24 h pretreatment, 10 uM MPP+ 1 h, compound further 48 h) it was 51%; in test [1] (100 nM meridamycin, 24 h pretreatment, 10 uM MPP+ 1 h, compound further 48 h), 51%; in test [1] (1000 Nm meridamycin, 24 h pretreatment, 10 uM MPP+ 1 h, compound further 48 h), 64%. The EC50 in test [1] (Rattus norvegicus, Neuron, relative to maximum protection (84% uptake) afforded by 10 ng/mL GDNF, read-out: EC50 of neuroprotection against MPP+-induced neurotoxicity) was found to be 0.555 µM; in test [2] (Rattus norvegicus, Cortical neurone, cultured cortical neurons, read-out: EC50 of increased neuronal survival (neurofilament content)) it was 0.012 µM. In addition, the “NEUROFILAMENT CONTENT (FOLD-INCREASE ABOVE UNTREATED CONTROL)” value in test [2] (10 nM meridamycin) turned out to be 1.71 fold; in test [2] (100 nM meridamycin), 2.24 fold; in test [2] (1 μM meridamycin), 2.32 fold; in test [2] (10 μM meridamycin), 2.56 fold. Further, the “Total Neurite Length (% Above Control)” value in test [3] (10 nM) worked out at 4%; in test [3] (100 nM), 9%; in test [3] (1 μM), 14%; in test [3] (10 μM), 24%; in test [4] (10 nM), 19%; in test [4] (100 nM), 40%. In addition, the “Total Neurite Length (% Above Control)” value in test [4] (1 μM) worked out at 113%; in test [4] (10 μM), 152%.

B1: GDNF: GDNF, 10 ng/mL, positive control that afforded maximum protection (protein, UniProt P39905 78-211, looked up)
Glial cell line-derived …: SPDKQMAVLPRRERNRQAAAANPENSRGKGRRGQRGKNRGCVLTAIHLNVTDLGLGYETKEELIFRYCSGSCDAAETTYDKILKNLSRNRRLVSDKVGQACCRPIAFDDDLSFLDDNLVYHILRKHSAKRCGCI
Regarding B1, in test [1] (10 ng/mL GDNF, MPP+-induced neurotoxicity), the “maximum protection (3H-dopamine uptake)” value is given as 84%.
